Experimental data taken from patent US20090018134A1, “Compounds - 945” (AstraZeneca AB, priority 2007, published 2009).

What follows are compounds tested against T1, mTOR (Homo sapiens, UniProt P42345) (assay: In Vitro mTOR Kinase Assay (Echo), Test (a)(ii)). Conditions: table of enzyme assay Test (a)(ii); read-out: Test (a)(ii) IC50.
T1 construct: FLAG; made in house
T1 sequence (P42345 1362-2549): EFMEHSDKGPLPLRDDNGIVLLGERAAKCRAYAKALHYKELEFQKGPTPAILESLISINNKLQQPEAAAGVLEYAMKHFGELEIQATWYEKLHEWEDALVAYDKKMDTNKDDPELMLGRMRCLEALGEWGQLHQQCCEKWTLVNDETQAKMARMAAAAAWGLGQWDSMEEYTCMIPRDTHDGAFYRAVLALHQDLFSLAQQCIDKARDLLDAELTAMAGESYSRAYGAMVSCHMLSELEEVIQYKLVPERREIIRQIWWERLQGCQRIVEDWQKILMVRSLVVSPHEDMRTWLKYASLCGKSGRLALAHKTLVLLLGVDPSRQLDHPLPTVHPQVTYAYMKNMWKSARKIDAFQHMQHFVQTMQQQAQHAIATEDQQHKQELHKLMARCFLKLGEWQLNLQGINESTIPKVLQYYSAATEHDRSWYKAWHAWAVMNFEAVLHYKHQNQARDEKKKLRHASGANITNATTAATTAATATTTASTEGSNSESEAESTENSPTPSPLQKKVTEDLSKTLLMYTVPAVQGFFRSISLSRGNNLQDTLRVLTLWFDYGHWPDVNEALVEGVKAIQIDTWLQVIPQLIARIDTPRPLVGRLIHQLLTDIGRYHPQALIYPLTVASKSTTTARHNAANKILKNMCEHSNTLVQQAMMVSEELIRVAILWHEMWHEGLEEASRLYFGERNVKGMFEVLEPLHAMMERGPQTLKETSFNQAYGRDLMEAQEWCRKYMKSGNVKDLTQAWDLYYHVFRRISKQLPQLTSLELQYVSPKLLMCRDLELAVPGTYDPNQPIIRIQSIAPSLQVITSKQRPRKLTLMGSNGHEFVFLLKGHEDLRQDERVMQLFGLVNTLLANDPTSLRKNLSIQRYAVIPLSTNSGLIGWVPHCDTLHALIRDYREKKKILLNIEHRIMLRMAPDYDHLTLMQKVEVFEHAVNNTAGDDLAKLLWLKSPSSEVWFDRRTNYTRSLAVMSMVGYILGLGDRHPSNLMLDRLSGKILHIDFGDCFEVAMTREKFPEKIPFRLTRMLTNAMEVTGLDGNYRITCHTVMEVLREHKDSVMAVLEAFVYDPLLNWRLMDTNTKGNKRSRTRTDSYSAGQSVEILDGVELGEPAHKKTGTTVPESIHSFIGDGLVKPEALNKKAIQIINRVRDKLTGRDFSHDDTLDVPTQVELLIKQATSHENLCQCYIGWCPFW
Format: biochemical
Method in brief: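 Compounds were acoustically dispensed, then incubated with FLAG-tagged mTOR (1362-2549) for 2 hours at room temperature. Reactions were quenched with EDTA plus detection antibody and AlphaScreen beads and left overnight in the dark before reading. Loss of phospho-T389 signal gave IC50 values.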
With `C[C@H]1COCCN1c1cc(C2(S(=O)(=O)c3cc(F)cc(F)c3)CC2)nc(-c2ccc(NC(=O)Nc3ccccn3)cc2)n1` [Example 19b, 1-[4-[4-[1-(3,5-difluorophenyl)sulfonylcyclopro-pyl]-6-[(3S)-3-methylmorpholin-4-yl]pyrimidin-2-yl]phenyl]-3-pyridin-2-ylurea] the IC50 was 1.19 nM. Compound `CC(C)CNC(=O)Nc1ccc(-c2nc(N3CCOC[C@@H]3C)cc(C3(S(=O)(=O)c4cc(F)cc(F)c4)CC3)n2)cc1` [Example 19c, 1-[4-[4-[1-(3,5-difluorophenyl)sulfonylcyclopro-pyl]-6-[(3S)-3-methylmorpholin-4-yl]pyrimidin-2-yl]phenyl]-3-(2-methylpropyl)urea] has an IC50 of 21.4 nM. With `CC(C)NC(=O)Nc1ccc(-c2nc(N3CCOC[C@@H]3C)cc(C3(S(=O)(=O)c4cc(F)cc(F)c4)CC3)n2)cc1` [Example 19d, 1-[4-[4-[1-(3,5-difluorophenyl)sulfonylcyclopro-pyl]-6-[(3S)-3-methylmorpholin-4-yl]pyrimidin-2-yl]phenyl]-3-propan-2-ylurea] the IC50 was 3.18 nM. For `CCNC(=O)Nc1ccc(-c2nc(N3CCOC[C@@H]3C)cc(C3(S(=O)(=O)c4cc(F)cc(F)c4)CC3)n2)cc1` [Example 19e, 1-[4-[4-[1-(3,5-difluorophenyl)sulfonylcyclopro-pyl]-6-[(3S)-3-methylmorpholin-4-yl]pyrimidin-2-yl]phenyl]-3-ethylurea], the IC50 was 1.35 nM. Compound `C[C@H]1COCCN1c1cc(C2(S(=O)(=O)c3cc(F)cc(F)c3)CC2)nc(-c2ccc(NC(=O)NCCN(C)C)cc2)n1` [Example 19f, 1-[4-[4-[1-(3,5-difluorophenyl)sulfonylcyclopro-pyl]-6-[(3S)-3-methylmorpholin-4-yl]pyrimidin-2-yl]phenyl]-3-(2-dimethylaminoethyl)urea] has an IC50 of 80.4 nM. In the case of `C[C@H]1COCCN1c1cc(C2(S(=O)(=O)c3cc(F)cc(F)c3)CC2)nc(-c2ccc(NC(=O)NCCO)cc2)n1` [Example 19g, 1-[4-[4-[1-(3,5-difluorophenyl)sulfonylcyclopro-pyl]-6-[(3S)-3-methylmorpholin-4-yl]pyrimidin-2-yl]phenyl]-3-(2-hydroxyethyl)urea], the IC50 is reported as 0.274 nM. In the case of `CCCNC(=O)Nc1ccc(-c2nc(N3CCOC[C@@H]3C)cc(C3(S(=O)(=O)c4cc(F)cc(F)c4)CC3)n2)cc1` [Example 19h, 1-[4-[4-[1-(3,5-difluorophenyl)sulfonylcyclopro-pyl]-6-[(3S)-3-methylmorpholin-4-yl]pyrimidin-2-yl]phenyl]-3-propylurea], the IC50 is reported as 2.46 nM. `CNC(=O)Nc1ccc(-c2nc(N3CCOC[C@@H]3C)cc(C3(S(=O)(=O)c4cc(F)cc(F)c4)CC3)n2)cc1` [Example 19i, 1-[4-[4-[1-(3,5-difluorophenyl)sulfonylcyclopro-pyl]-6-[(3S)-3-methylmorpholin-4-yl]pyrimidin-2-yl]phenyl]-3-methylurea] was tested, and the IC50 was 1.52 nM. Compound `C[C@H]1COCCN1c1cc(C2(S(=O)(=O)c3cc(F)cc(F)c3)CC2)nc(-c2ccc(NC(=O)Nc3ccc(C(F)(F)F)cc3)cc2)n1` [Example 19j, 1-[4-[4-[1-(3,5-difluorophenyl)sulfonylcyclopro-pyl]-6-[(3S)-3-methylmorpholin-4-yl]pyrimidin-2-yl]phenyl]-3-[4-(trifluoromethyl)phenyl]urea] has an IC50 of 19.9 nM. `C[C@H]1COCCN1c1cc(C2(S(=O)(=O)c3cc(F)cc(F)c3)CC2)nc(-c2ccc(NC(=O)NC(C)(C)CO)cc2)n1` [Example 19k, 1-[4-[4-[1-(3,5-difluorophenyl)sulfonylcyclopro-pyl]-6-[(3S)-3-methylmorpholin-4-yl]pyrimidin-2-yl]phenyl]-3-(1-hydroxy-2-methylpropan-2-yl)urea] showed an IC50 of 4.15 nM. Work on `C[C@H]1COCCN1c1cc(C2(S(=O)(=O)c3cc(F)cc(F)c3)CC2)nc(-c2ccc(NC(=O)NCCCO)cc2)n1` [Example 19l, 1-[4-[4-[1-(3,5-difluorophenyl)sulfonylcyclopro-pyl]-6-[(3S)-3-methylmorpholin-4-yl]pyrimidin-2-yl]phenyl]-3-(3-hydroxypropyl)urea] yielded an IC50 of 1.52 nM. For `C[C@H]1COCCN1c1cc(C2(S(=O)(=O)c3cc(F)cc(F)c3)CC2)nc(-c2ccc(NC(=O)Nc3cnn(C)c3)cc2)n1` [Example 19m, 1-[4-[4-[1-(3,5-difluorophenyl)sulfonylcyclopro-pyl]-6-[(3S)-3-methylmorpholin-4-yl]pyrimidin-2-yl]phenyl]-3-(1-methylpyrazol-4-yl)urea], the IC50 was 0.944 nM. `C[C@H]1COCCN1c1cc(C2(S(C)(=O)=O)CCNCC2)nc(-c2ccc(NC(=O)NC3CC3)cc2)n1` [Example 20, 3-Cyclopropyl-1-[4-[4-[(3S)-3-methylmorpholin-4-yl]-6-(4-methylsulfonylpiperidin-4-yl)pyrimidin-2-yl]phenyl]urea] gave an IC50 of 12.8 nM. With `CNC(=O)Nc1ccc(-c2nc(N3CCOC[C@@H]3C)cc(C3(S(C)(=O)=O)CCNCC3)n2)cc1` [Example 20a, 3-methyl-1-[4-[4-[(3S)-3-methylmorpholin-4-yl]-6-(4-methylsulfonylpiperidin-4-yl)pyrimidin-2-yl]phenyl]urea] the IC50 was 16.3 nM. With `C[C@H]1COCCN1c1cc(C2(S(C)(=O)=O)CCNCC2)nc(-c2ccc(NC(=O)NCCN(C)C)cc2)n1` [Example 20b, 3-(2-dimethylaminoethyl)-1-[4-[4-[(3S)-3-methylmorpholin-4-yl]-6-(4-methylsulfonylpiperidin-4-yl)pyrimidin-2-yl]phenyl]urea] the IC50 was 874 nM. With `C[C@H]1COCCN1c1cc(C2(S(C)(=O)=O)CCNCC2)nc(-c2ccc(NC(=O)NCCO)cc2)n1` [Example 20c, 3-(2-hydroxyethyl)-1-[4-[4-[(3S)-3-methylmorpholin-4-yl]-6-(4-methylsulfonylpiperidin-4-yl)pyrimidin-2-yl]phenyl]urea] the IC50 was 5.59 nM. `C[C@H]1COCCN1c1cc(C2(S(C)(=O)=O)CCNCC2)nc(-c2ccc(NC(=O)Nc3cnn(C)c3)cc2)n1` [Example 20d, 1-[4-[4-[(3S)-3-methylmorpholin-4-yl]-6-(4-methylsulfonylpiperidin-4-yl)pyrimidin-2-yl]phenyl]-3-(1-methylpyrazol-4-yl)urea] showed an IC50 of 13.3 nM. `C[C@H]1COCCN1c1cc(C2(S(=O)(=O)C3CC3)CCNCC2)nc(-c2ccc(NC(=O)NC3CC3)cc2)n1` [Example 21, 3-Cyclopropyl-1-[4-[4-(4-cyclopropylsulfonylpiperidin-4-yl)-6-[(3S)-3-methylmorpholin-4-yl]pyrimidin-2-yl]phenyl]urea] was tested, and the IC50 was 25.3 nM. Compound `CNC(=O)Nc1ccc(-c2nc(N3CCOC[C@@H]3C)cc(C3(S(=O)(=O)C4CC4)CCNCC3)n2)cc1` [Example 21a, 1-[4-[4-(4-cyclopropylsulfonylpiperidin-4-yl)-6-[(3S)-3-methylmorpholin-4-yl]pyrimidin-2-yl]phenyl]-3-methylurea] has an IC50 of 37.8 nM. For `C[C@H]1COCCN1c1cc(C2(S(=O)(=O)C3CC3)CCNCC2)nc(-c2ccc(NC(=O)NCCO)cc2)n1` [Example 21b, 1-[4-[4-(4-cyclopropylsulfonylpiperidin-4-yl)-6-[(3S)-3-methylmorpholin-4-yl]pyrimidin-2-yl]phenyl]-3-(2-hydroxyethyl)urea], the IC50 was 13.3 nM. In the case of `C[C@H]1COCCN1c1cc(C2(S(=O)(=O)C3CC3)CCNCC2)nc(-c2ccc(NC(=O)Nc3cnn(C)c3)cc2)n1` [Example 21c, 1-[4-[4-(4-cyclopropylsulfonylpiperidin-4-yl)-6-[(3S)-3-methylmorpholin-4-yl]pyrimidin-2-yl]phenyl]-3-(1-methylpyrazol-4-yl)urea], the IC50 is reported as 23.4 nM.
